Test results taken from ChEMBL document CHEMBL3396954, “Synthesis and in vitro biological evaluation of dihydroartemisinyl-chalcone esters” (Eur J Med Chem, 2015).

System: Plasmodium falciparum
Test: Antimalarial activity against chloroquine-resistant Plasmodium falciparum W2 assessed as inhibition of parasite proliferation after 96 hrs by SYBR Green I-based fluorescence method
Format: functional, organism-based
Settings: W2, 96 h

Structure (SMILES) | IC50
COc1ccc(C(=O)/C=C/c2ccc(C(=O)OC3O[C@@H]4O[C@]5(C)CC[C@H]6[C@H](C)CC[C@@H]([C@H]3C)[C@@]46OO5)cc2)c(OC)c1 (stereo partly specified) | 0.00204 µM
COc1ccc(C(=O)/C=C/c2ccc(C(=O)O)cc2)c(OC)c1 | 0.0148 µM
O=C(O)c1ccc(/C=C/C(=O)c2ccc(Cl)c(Cl)c2Cl)cc1 | 0.0622 µM
COc1ccc(C(=O)/C=C/c2ccc(C(=O)OC3O[C@@H]4O[C@]5(C)CC[C@H]6[C@H](C)CC[C@@H]([C@H]3C)[C@@]46OO5)cc2)cc1[N+](=O)[O-] (stereo partly specified) | 0.00566 µM

System: not listed separately
Test: Selectivity index, ratio of IC50 for chloroquine-resistant Plasmodium falciparum W2 to IC50 for human MCF7 cells
Settings: not given

Structure (SMILES) | Ratio IC50
COc1ccc(C(=O)/C=C/c2ccc(C(=O)OC3O[C@@H]4O[C@]5(C)CC[C@H]6[C@H](C)CC[C@@H]([C@H]3C)[C@@]46OO5)cc2)c(OC)c1 (stereo partly specified) | >500
COc1ccc(C(=O)/C=C/c2ccc(C(=O)O)cc2)c(OC)c1 | 1.9
O=C(O)c1ccc(/C=C/C(=O)c2ccc(Cl)c(Cl)c2Cl)cc1 | 0.1
COc1ccc(C(=O)/C=C/c2ccc(C(=O)OC3O[C@@H]4O[C@]5(C)CC[C@H]6[C@H](C)CC[C@@H]([C@H]3C)[C@@]46OO5)cc2)cc1[N+](=O)[O-] (stereo partly specified) | >512

System: not listed separately
Test: Selectivity index, ratio of IC50 for chloroquine-resistant Plasmodium falciparum W2 to IC50 for human TK10 cells
Parameters: species or system TK-10
Settings: not given

Structure (SMILES) | Ratio IC50
COc1ccc(C(=O)/C=C/c2ccc(C(=O)OC3O[C@@H]4O[C@]5(C)CC[C@H]6[C@H](C)CC[C@@H]([C@H]3C)[C@@]46OO5)cc2)c(OC)c1 (stereo partly specified) | >10799
COc1ccc(C(=O)/C=C/c2ccc(C(=O)O)cc2)c(OC)c1 | 4
O=C(O)c1ccc(/C=C/C(=O)c2ccc(Cl)c(Cl)c2Cl)cc1 | 0.4
COc1ccc(C(=O)/C=C/c2ccc(C(=O)OC3O[C@@H]4O[C@]5(C)CC[C@H]6[C@H](C)CC[C@@H]([C@H]3C)[C@@]46OO5)cc2)cc1[N+](=O)[O-] (stereo partly specified) | >3010

System: not listed separately
Test: Selectivity index, ratio of IC50 for human WI38 cells to IC50 for chloroquine-sensitive Plasmodium falciparum 3D7
Format: toxicity, cell-based, WI-38
Settings: read-out: Ratio IC50

Structure (SMILES) | selectivity ratio
COc1ccc(C(=O)/C=C/c2ccc(C(=O)OC3O[C@@H]4O[C@]5(C)CC[C@H]6[C@H](C)CC[C@@H]([C@H]3C)[C@@]46OO5)cc2)c(OC)c1 (stereo partly specified) | > 33100
COc1ccc(C(=O)/C=C/c2ccc(C(=O)O)cc2)c(OC)c1 | 3.3
O=C(O)c1ccc(/C=C/C(=O)c2ccc(Cl)c(Cl)c2Cl)cc1 | 0.5
COc1ccc(C(=O)/C=C/c2ccc(C(=O)OC3O[C@@H]4O[C@]5(C)CC[C@H]6[C@H](C)CC[C@@H]([C@H]3C)[C@@]46OO5)cc2)cc1[N+](=O)[O-] (stereo partly specified) | > 17000

System: WI-38
Test: Selectivity index, ratio of IC50 for human WI38 cells to IC50 for human TK10 cells
Format: functional
Settings: not given

Structure (SMILES) | Ratio IC50
COc1ccc(C(=O)/C=C/c2ccc(C(=O)OC3O[C@@H]4O[C@]5(C)CC[C@H]6[C@H](C)CC[C@@H]([C@H]3C)[C@@]46OO5)cc2)c(OC)c1 (stereo partly specified) | >5
COc1ccc(C(=O)/C=C/c2ccc(C(=O)O)cc2)c(OC)c1 | 0.8
O=C(O)c1ccc(/C=C/C(=O)c2ccc(Cl)c(Cl)c2Cl)cc1 | 0.9
COc1ccc(C(=O)/C=C/c2ccc(C(=O)OC3O[C@@H]4O[C@]5(C)CC[C@H]6[C@H](C)CC[C@@H]([C@H]3C)[C@@]46OO5)cc2)cc1[N+](=O)[O-] (stereo partly specified) | >6

System: UACC-62
Test: Selectivity index, ratio of IC50 for human WI38 cells to IC50 for human UACC62 cells
Format: functional
Settings: not given

Structure (SMILES) | Ratio IC50
COc1ccc(C(=O)/C=C/c2ccc(C(=O)OC3O[C@@H]4O[C@]5(C)CC[C@H]6[C@H](C)CC[C@@H]([C@H]3C)[C@@]46OO5)cc2)c(OC)c1 (stereo partly specified) | >23
COc1ccc(C(=O)/C=C/c2ccc(C(=O)O)cc2)c(OC)c1 | 7.2
O=C(O)c1ccc(/C=C/C(=O)c2ccc(Cl)c(Cl)c2Cl)cc1 | 1
COc1ccc(C(=O)/C=C/c2ccc(C(=O)OC3O[C@@H]4O[C@]5(C)CC[C@H]6[C@H](C)CC[C@@H]([C@H]3C)[C@@]46OO5)cc2)cc1[N+](=O)[O-] (stereo partly specified) | >13

System: MCF7
Test: Selectivity index, ratio of IC50 for human WI38 cells to IC50 for human MCF7 cells
Format: functional
Settings: not given

Structure (SMILES) | Ratio IC50
COc1ccc(C(=O)/C=C/c2ccc(C(=O)OC3O[C@@H]4O[C@]5(C)CC[C@H]6[C@H](C)CC[C@@H]([C@H]3C)[C@@]46OO5)cc2)c(OC)c1 (stereo partly specified) | >100
COc1ccc(C(=O)/C=C/c2ccc(C(=O)O)cc2)c(OC)c1 | 1.7
O=C(O)c1ccc(/C=C/C(=O)c2ccc(Cl)c(Cl)c2Cl)cc1 | 2.3
COc1ccc(C(=O)/C=C/c2ccc(C(=O)OC3O[C@@H]4O[C@]5(C)CC[C@H]6[C@H](C)CC[C@@H]([C@H]3C)[C@@]46OO5)cc2)cc1[N+](=O)[O-] (stereo partly specified) | >34

System: not listed separately
Test: Anticancer activity against human UACC62 cells assessed as inhibition of cell growth after 24 hrs by SRB assay
Format: functional, cell-based
Settings: UACC-62, 24 h

Structure (SMILES) | IC50
COc1ccc(C(=O)/C=C/c2ccc(C(=O)OC3O[C@@H]4O[C@]5(C)CC[C@H]6[C@H](C)CC[C@@H]([C@H]3C)[C@@]46OO5)cc2)c(OC)c1 (stereo partly specified) | 4.33 µM
COc1ccc(C(=O)/C=C/c2ccc(C(=O)O)cc2)c(OC)c1 | 6.75 µM
O=C(O)c1ccc(/C=C/C(=O)c2ccc(Cl)c(Cl)c2Cl)cc1 | 19.7 µM
COc1ccc(C(=O)/C=C/c2ccc(C(=O)OC3O[C@@H]4O[C@]5(C)CC[C@H]6[C@H](C)CC[C@@H]([C@H]3C)[C@@]46OO5)cc2)cc1[N+](=O)[O-] (stereo partly specified) | 7.58 µM

System: not listed separately
Test: Selectivity index, ratio of IC50 for chloroquine-resistant Plasmodium falciparum W2 to IC50 for human UACC62 cells
Parameters: species or system UACC-62
Settings: not given

Structure (SMILES) | Ratio IC50
COc1ccc(C(=O)/C=C/c2ccc(C(=O)OC3O[C@@H]4O[C@]5(C)CC[C@H]6[C@H](C)CC[C@@H]([C@H]3C)[C@@]46OO5)cc2)c(OC)c1 (stereo partly specified) | >2123
COc1ccc(C(=O)/C=C/c2ccc(C(=O)O)cc2)c(OC)c1 | 0.5
O=C(O)c1ccc(/C=C/C(=O)c2ccc(Cl)c(Cl)c2Cl)cc1 | 0.3
COc1ccc(C(=O)/C=C/c2ccc(C(=O)OC3O[C@@H]4O[C@]5(C)CC[C@H]6[C@H](C)CC[C@@H]([C@H]3C)[C@@]46OO5)cc2)cc1[N+](=O)[O-] (stereo partly specified) | >1340

System: not listed separately
Test: Cytotoxicity against human WI38 cells assessed as inhibition of proliferation after 24 hrs by SRB assay
Format: cell-based
Settings: WI-38, 24 h

Structure (SMILES) | IC50
COc1ccc(C(=O)/C=C/c2ccc(C(=O)OC3O[C@@H]4O[C@]5(C)CC[C@H]6[C@H](C)CC[C@@H]([C@H]3C)[C@@]46OO5)cc2)c(OC)c1 (stereo partly specified) | > 100 µM
COc1ccc(C(=O)/C=C/c2ccc(C(=O)O)cc2)c(OC)c1 | 48.6 µM
O=C(O)c1ccc(/C=C/C(=O)c2ccc(Cl)c(Cl)c2Cl)cc1 | 20.4 µM
COc1ccc(C(=O)/C=C/c2ccc(C(=O)OC3O[C@@H]4O[C@]5(C)CC[C@H]6[C@H](C)CC[C@@H]([C@H]3C)[C@@]46OO5)cc2)cc1[N+](=O)[O-] (stereo partly specified) | > 100 µM

System: not listed separately
Test: Resistance index, ratio of IC50 for chloroquine-resistant Plasmodium falciparum W2 to IC50 for chloroquine-sensitive Plasmodium falciparum 3D7
Format: functional
Settings: not given

Structure (SMILES) | Ratio IC50
COc1ccc(C(=O)/C=C/c2ccc(C(=O)OC3O[C@@H]4O[C@]5(C)CC[C@H]6[C@H](C)CC[C@@H]([C@H]3C)[C@@]46OO5)cc2)c(OC)c1 (stereo partly specified) | 0.7
COc1ccc(C(=O)/C=C/c2ccc(C(=O)O)cc2)c(OC)c1 | 1
O=C(O)c1ccc(/C=C/C(=O)c2ccc(Cl)c(Cl)c2Cl)cc1 | 1.5
COc1ccc(C(=O)/C=C/c2ccc(C(=O)OC3O[C@@H]4O[C@]5(C)CC[C@H]6[C@H](C)CC[C@@H]([C@H]3C)[C@@]46OO5)cc2)cc1[N+](=O)[O-] (stereo partly specified) | 1

System: Plasmodium falciparum
Test: Antimalarial activity against chloroquine-sensitive Plasmodium falciparum 3D7 assessed as inhibition of parasite proliferation after 96 hrs by SYBR Green I-based fluorescence method
Format: functional, organism-based
Settings: 3D7, 96 h

Structure (SMILES) | IC50
COc1ccc(C(=O)/C=C/c2ccc(C(=O)OC3O[C@@H]4O[C@]5(C)CC[C@H]6[C@H](C)CC[C@@H]([C@H]3C)[C@@]46OO5)cc2)c(OC)c1 (stereo partly specified) | 0.00302 µM
COc1ccc(C(=O)/C=C/c2ccc(C(=O)O)cc2)c(OC)c1 | 0.0148 µM
O=C(O)c1ccc(/C=C/C(=O)c2ccc(Cl)c(Cl)c2Cl)cc1 | 0.041 µM
COc1ccc(C(=O)/C=C/c2ccc(C(=O)OC3O[C@@H]4O[C@]5(C)CC[C@H]6[C@H](C)CC[C@@H]([C@H]3C)[C@@]46OO5)cc2)cc1[N+](=O)[O-] (stereo partly specified) | 0.00587 µM

System: MCF7
Test: Anticancer activity against human MCF7 cells assessed as inhibition of cell growth after 24 hrs by SRB assay
Format: functional, cell-based
Settings: MCF7, 24 h

Structure (SMILES) | IC50
COc1ccc(C(=O)/C=C/c2ccc(C(=O)OC3O[C@@H]4O[C@]5(C)CC[C@H]6[C@H](C)CC[C@@H]([C@H]3C)[C@@]46OO5)cc2)c(OC)c1 (stereo partly specified) | 1.02 µM
COc1ccc(C(=O)/C=C/c2ccc(C(=O)O)cc2)c(OC)c1 | 28.1 µM
O=C(O)c1ccc(/C=C/C(=O)c2ccc(Cl)c(Cl)c2Cl)cc1 | 8.73 µM
COc1ccc(C(=O)/C=C/c2ccc(C(=O)OC3O[C@@H]4O[C@]5(C)CC[C@H]6[C@H](C)CC[C@@H]([C@H]3C)[C@@]46OO5)cc2)cc1[N+](=O)[O-] (stereo partly specified) | 2.9 µM

System: TK-10
Test: Anticancer activity against human TK10 cells assessed as inhibition of cell growth after 24 hrs by SRB assay
Format: functional, cell-based
Settings: TK-10, 24 h

Structure (SMILES) | IC50
COc1ccc(C(=O)/C=C/c2ccc(C(=O)OC3O[C@@H]4O[C@]5(C)CC[C@H]6[C@H](C)CC[C@@H]([C@H]3C)[C@@]46OO5)cc2)c(OC)c1 (stereo partly specified) | 22 µM
COc1ccc(C(=O)/C=C/c2ccc(C(=O)O)cc2)c(OC)c1 | 59.6 µM
O=C(O)c1ccc(/C=C/C(=O)c2ccc(Cl)c(Cl)c2Cl)cc1 | 23.6 µM
COc1ccc(C(=O)/C=C/c2ccc(C(=O)OC3O[C@@H]4O[C@]5(C)CC[C@H]6[C@H](C)CC[C@@H]([C@H]3C)[C@@]46OO5)cc2)cc1[N+](=O)[O-] (stereo partly specified) | 17 µM
